From patent US20220023250A1, “ISOPROPYLCARBONATE BENZOYL PEROXIDE COMPOSITIONS AND METHODS OF USE” (Galderma Holding SA, priority 2019, published 2022)
One block for each compound: values may come before it.

What was measured:
[1] = Maximum solubility in non-volatile part of vehicle gel and in reconstituted sebum; assay type: physicochemical; conditions: for maximum solubility, TA reconstituted liquid sebum (22 H) / maximum solubility, TA reconstituted liquid sebum (extemporaneous): liquid fraction of the reconstituted sebum; for maximum solubility, TA reconstituted liquid sebum (22 H) / maximum solubility, TA non-volatile (22 H) / maximum solubility, Liquid sebum reconstituted at 32° C. (22 H): 22 H agitation; for maximum solubility, TA non-volatile (22 H): non-volatile part of the Composition A vehicle gel
From the text: In the case of active principles in dispersed form, these can dissolve after application, either in the sebum or in the non-volatile part of the formulation. […] (22 H agitation)

[2] = Maximum solubility of Isopropylcarbonate Benzoyl Peroxide in oils; assay type: physicochemical
Method: First, the maximum solubilities of Isopropylcarbonate Benzoyl Peroxide in various oils was assessed in the following table.

[3] = Compatibility of additives (keratolytic agents, opacifying agents) with 1% CD08467 gel based composition 0347.1000; assay type: physicochemical; conditions: for Notes (reason of incompatibility): Table 6, keratolytic additive in gel 0347.1000; for compatibility of keratolytic agents: summary of Table 6
Method: For this study, the following gel based composition was tested:
The following keratolytic agents were tested with the gel based composition indicated above:
The goal of using an opacifier is to mainly “mask” the evolution of the orange-brown color that appears over time either or the orange color present from T0. […] The chemical and physical stabilities were evaluated over 3 months at RT and 40° C.
The following opacifying agents were tested with the gel based composition indicated above: […]

[4] = Compatibility with oils: chemical and physical stability of 2.5% formulations, 3 months RT and 40° C.; assay type: physicochemical
Method: To assess the possibility of a cream formulation that restores the cutaneous barrier, the compatibility of Isopropylcarbonate Benzoyl Peroxide with oils was assessed.
Further the chemical and physical stabilities of the formulations containing 2.5% Isopropylcarbonate Benzoyl Peroxide with various oils were assessed after storage at 3 months RT and 40° C. The value of 2.5% was chosen in order to allow for comparisons to an equivalent formulation containing 2.5% benzoyl peroxide instead of 2.5% Isopropylcarbonate Benzoyl Peroxide.

[5] = series with and without TiO2
[6] = in COS SILKFLO ® 366 (POLYDECENE, Non-polar)
[7] = in ISOSTEARYL ISOSTEARATE (Average polarity)
[8] = in PARLEAM ® (HYDROGENATED POLYISOBUTENE, Non-polar)
[9] = in PRIMOL ™ 352 (MINERAL OIL, Non-polar)
[10] = in SILICON FLUID 20CST (POLYDIMETHYLSILOXANE, Average polarity)
[11] = in ST-CYCLOMETHICONE 5 NF (Average polarity)

Structure (SMILES): O=C(OOC(=O)c1ccccc1)c1ccccc1 [BPO, benzoyl peroxide]
maximum solubility, TA reconstituted liquid sebum (22 H) [1]: 1.4% | maximum solubility, TA reconstituted liquid sebum (extemporaneous) [1]: 1.1% | maximum solubility, TA non-volatile (22 H) [1]: 0.35% | maximum solubility, Liquid sebum reconstituted at 32° C. (22 H) [1]: 1.8%

Structure (SMILES): CC(C)OC(=O)Oc1ccccc1C(=O)OOC(=O)c1ccccc1 [CD08467]
% Max. Solution [2, 6]: 0.1498% | % max sol. visual [2, 6]: 0.18% | % Max. Solution [2, 7]: 0.8679% | % max sol. visual [2, 7]: 1.39% | % Max. Solution [2, 8]: 0.1862% | % max sol. visual [2, 8]: 0.50% | % Max. Solution [2, 9]: 0.1867% | % max sol. visual [2, 9]: 0.41% | % Max. Solution [2, 10]: 0.0735% | % max sol. visual [2, 10]: 0.18% | % Max. Solution ([2]; in SQUALANE PE (Non-polar)): 0.1781% | % max sol. visual ([2]; in SQUALANE PE (Non-polar)): 0.18% | % Max. Solution [2, 11]: 0.1253% | % max sol. visual [2, 11]: 0.33% | % Max. Solution ([2]; in WATER (Polar)): Not measurable | % Max. Solution ([2]; meadowfoam seed oil): 1.2925% | % max sol. visual ([2]; meadowfoam seed oil): 1.96% | maximum solubility, TA reconstituted liquid sebum (22 H) [1]: 1.6% | maximum solubility, TA reconstituted liquid sebum (extemporaneous) [1]: 0.25% | maximum solubility, TA non-volatile (22 H) [1]: 0.25% | maximum solubility, Liquid sebum reconstituted at 32° C. (22 H) [1]: 1.6%

Notes (reason of incompatibility) [3]: Fall in value 1 m | compatibility of keratolytic agents [3]: compatible
Structure (SMILES): O=C(O)CO [GLYCOLIC ACID]

Structure (SMILES): NCCCC[C@H](N)C(=O)O [L-LYSINE]
Notes (reason of incompatibility) [3]: Strong coloration

compatibility of keratolytic agents [3]: compatible
Structure (SMILES): CC(O)C(=O)O (centres unmarked) [LACTIC ACID]

compatibility of keratolytic agents [3]: compatible
Structure (SMILES): O=C(O)CC(O)C(=O)O (centres unmarked) [MALIC ACID]

compatibility of keratolytic agents [3]: compatible
Structure (SMILES): O=P(O)(O)O[C@H]1[C@H](OP(=O)(O)O)[C@@H](OP(=O)(O)O)[C@H](OP(=O)(O)O)[C@@H](OP(=O)(O)O)[C@H]1OP(=O)(O)O [PHYTIC ACID]

Notes (reason of incompatibility) [3]: Fall in value 1 m
Structure (SMILES): O=C(O)c1ccccc1O [SALICYLIC ACID]

compatibility of Isopropylcarbonate Benzoyl Peroxide with oils ([4]; Table 8): compatible
Structure (SMILES): CC(C)CCCC(C)CCCC(C)CCCCC(C)CCCC(C)CCCC(C)C (centres unmarked) [SQUALANE PE]

Notes ([4]; Table 8, comparison with equivalent 2.5% benzoyl peroxide formulation): Intense orange coloration
Structure (SMILES): C[Si]1(C)O[Si](C)(C)O[Si](C)(C)O[Si](C)(C)O[Si](C)(C)O1 [ST-CYCLOMETHICONE 5 NF, CYCLOMETHICONE 5]

Structure (SMILES): O=C([O-])CN(CCN(CC(=O)[O-])CC(=O)O)CC(=O)O.[Na+].[Na+] [disodium EDTA, disodium ethylenediaminetetraacetic acid (EDTA)]
effect of component on stability of the formulation [5]: counter the chemically instability
